According to PubChem BioAssay (NCI):
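All cell lines were grown in 96-well plates and treated with compound for 48 hours. GI50: concentration for 50% inhibition of growth. At the TGI there is no net growth.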

What was measured:
Assay in all cases: NCI anticancer screen, dose series, 48 h
[1] = system: NCI-H460 lung
[2] = system: SR leukemia
[3] = system: SK-OV-3 ovarian
[4] = system: HT29 colon
[5] = system: HCT-116 colon
[6] = system: M14 melanoma
[7] = system: SK-MEL-2 melanoma
[8] = system: NCI-H226 lung
[9] = system: EKVX NSCLC
[10] = system: SF-539 CNS

| SMILES | TGI [1] [µM] | TGI [2] [µM] | TGI [3] [µM] | TGI [4] [µM] | TGI [5] [µM] | TGI [6] [µM] | TGI [7] [µM] | TGI [8] [µM] | TGI [9] [µM] | TGI [10] [µM] | GI50 [1] [µM] | GI50 [2] [µM] | GI50 [3] [µM] | GI50 [4] [µM] | GI50 [5] [µM] | GI50 [6] [µM] | GI50 [7] [µM] | GI50 [8] [µM] | GI50 [9] [µM] | GI50 [10] [µM] |
| --- | --- | --- | --- | --- | --- | --- | --- | --- | --- | --- | --- | --- | --- | --- | --- | --- | --- | --- | --- | --- |
| COc1ccc2c(Cl)cc(NC(=S)Nc3ccccc3)nc2c1 | > 100 | 74.5 | 61.1 | 44.4 | 49.1 | 36.6 | 55 | > 100 | 63.1 | > 100 | – | – | – | – | – | – | – | – | – | – |
| COc1ccc(/C(=C(\c2ccccc2)[N+](=O)[O-])c2ccc(OCCN3CCCC3)cc2)cc1 | 4.69 | 5.05 | 18.3 | 1.82 | 13.5 | 3.47 | 5.06 | 18.2 | 21.5 | 3.42 | 2.02 | 1.49 | 5.5 | 0.301 | 2.46 | 1.82 | 2.06 | 4.37 | 7.29 | 1.39 |
| CC/C(=C/c1ccc(OC)cc1)[N+](=O)[O-] | 4.47 | 7.65 | 27.5 | 7.12 | 3.1 | 4.18 | 4.62 | 3.86 | 27.2 | 3.38 | 2.11 | 2.31 | 14.4 | 2.71 | 1.61 | 1.85 | 2.02 | 2.07 | 14.2 | 1.82 |
| N#Cc1cnn(C(=O)c2nn(-c3ccc(Cl)cc3)cc2O)c1N | 0.507 | 0.983 | 11.3 | 14.3 | 10.9 | 8.01 | 18.9 | 7.45 | 10.4 | 7.85 | 0.189 | 0.278 | 0.521 | 1 | 0.26 | 0.462 | 0.908 | 0.349 | 0.378 | 0.323 |
| COC(=O)C(=O)C(C(=O)C(=O)Nc1cc(C)ccc1C)c1nc2ccccc2[nH]c1=O (stereo not given) | > 100 | > 100 | > 100 | > 100 | > 100 | > 100 | > 100 | > 100 | > 100 | > 100 | – | – | – | – | – | – | – | – | – | – |
| O=C(/C=C/c1ccco1)Nc1ncc(Cc2cc(Cl)ccc2Cl)s1 | > 100 | > 100 | > 100 | > 100 | > 100 | > 100 | > 100 | > 100 | > 100 | 0.191 | 0.0392 | 0.0385 | 0.0538 | 0.038 | 0.0509 | 0.0373 | 0.148 | 0.581 | 0.161 | 0.0373 |
| CCc1ccc([OH2+])c(C(=O)[O-])c1.CCc1ccc([OH2+])c(C(=O)[O-])c1.CCc1ccc([OH2+])c(C(=O)[O-])c1.CCc1ccc([OH2+])c(C(=O)[O-])c1.[Cu+2].[Cu+2] | > 100 | > 100 | > 68.2 | > 100 | > 100 | > 100 | > 100 | > 100 | > 100 | > 100 | 52.6 | 24.5 | 23.9 | 44.7 | > 100 | > 100 | > 91.3 | > 50.2 | > 100 | > 100 |
| O=C(O)CCCCCNCc1cc2cc3c(cc2c2cc(OCc4ccccc4)ccc12)OCO3 | 3.33 | 5.3 | 19.9 | 3.53 | 3.48 | 3.51 | 4.6 | 21.9 | 17.9 | 3.62 | 1.7 | 1.7 | 5.11 | 1.73 | 1.58 | 1.9 | 2.22 | 4.37 | 4.01 | 1.9 |
| CCCCCCNC(=O)CCN(C(=O)O)S(=O)(=O)c1ccc(NC(=O)c2ccccc2)cc1 | > 62.2 | 53.8 | > 100 | > 100 | > 59.5 | > 100 | > 100 | > 100 | > 100 | 38.4 | – | – | – | – | – | – | – | – | – | – |
| NS(=O)(=O)c1cccc(Nc2cc(-c3ccc(F)cc3)[nH]n2)c1 | > 25 | > 25 | > 25 | > 25 | > 25 | > 25 | > 25 | > 25 | > 25 | > 25 | 13.8 | 12.5 | 13.2 | > 25 | 11.9 | > 25 | 16.1 | > 25 | > 25 | 15.1 |
| C=C1C(=O)C23C(O)CC4C(C)(C)CCC(O)C4(C)C2CC(OC(C)=O)C1[C@H]3O (stereo not given in full) | 6.65 | > 41.1 | 41.4 | – | 5.88 | 12.1 | 5.3 | 28.1 | 16.8 | 9.45 | – | – | – | – | – | – | – | – | – | – |
| CC(C)(C)n1cc(-c2ccnc(NCCCNS(=O)(=O)c3cccc4ccccc34)c2)c(-c2cccc(O)c2)n1 | 3.8 | 5.65 | 7.23 | – | 2.89 | 3.21 | 4.06 | 4.36 | 6.32 | 3.52 | 1.93 | 1.4 | 2.63 | – | 1.4 | 1.68 | 1.88 | 1.97 | 2.13 | 1.83 |
| CSCSCC(CO)NC(=O)/C=C/c1c(C)[nH]c(=O)[nH]c1=O (stereo not given) | > 100 | > 100 | – | > 100 | > 100 | > 100 | > 100 | > 100 | > 100 | > 100 | – | – | – | – | – | – | – | – | – | – |
| CC(C)(c1ccc(C=O)o1)c1ccc(C(C)(C)c2ccc(C=O)o2)o1 | > 100 | > 100 | > 100 | > 100 | > 100 | – | > 100 | > 100 | > 100 | > 100 | – | – | – | – | – | – | – | – | – | – |
